According to patent US10144742B2 (Millennium Pharmaceuticals, Inc., priority 2014, dated 2018):
Read-outs that look alike come from different tables or passages of the source.

Tests used:
hNAMPT protein = hNAMPT protein (Homo sapiens (Human), UniProt P43490); test: NAMPT enzyme assay (TR-FRET/HTRF, BodiPY ligand, anti 6His-Tb); assay type: binding; settings: for IC50: NAMPT IC50 range class, read-out: IC50; for inhibition at 1 µM: read-out: Percent Inhibition
In short: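 Compound or DMSO was incubated for 1 h at room temperature, protected from light, with BodiPY ligand and hNAMPT labelled by terbium anti-6His antibody. The 520 nm to 486 nm emission ratio after 320 nm excitation gave inhibition versus vehicle, from which concentration-response curves yielded IC50.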

PC3 cells = test: PC3 growth inhibition (Cell-titer glo, 72 hours); assay type: cell-based; settings: Homo sapiens, PC-3, PC3 cells, 72 hours, Cell-titer glo, read-out: Percent Inhibition (PC3 growth inhibition); for inhibition at 1 µM: compound concentration 1 μM; for inhibition at 1.667 µM: compound concentration 1.667 μM
In short: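 Compounds in AIM serum-free medium were applied for 72 h at 37 °C, 5% CO2 to PC3 cells plated overnight from RPMI1640 culture. Luminescence after 10 min CellTiter-Glo, normalised to DMSO, gave % viability at 1 μM or 1.667 μM, or GI50/LD50.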

Chain of hNAMPT protein (P43490 whole entry): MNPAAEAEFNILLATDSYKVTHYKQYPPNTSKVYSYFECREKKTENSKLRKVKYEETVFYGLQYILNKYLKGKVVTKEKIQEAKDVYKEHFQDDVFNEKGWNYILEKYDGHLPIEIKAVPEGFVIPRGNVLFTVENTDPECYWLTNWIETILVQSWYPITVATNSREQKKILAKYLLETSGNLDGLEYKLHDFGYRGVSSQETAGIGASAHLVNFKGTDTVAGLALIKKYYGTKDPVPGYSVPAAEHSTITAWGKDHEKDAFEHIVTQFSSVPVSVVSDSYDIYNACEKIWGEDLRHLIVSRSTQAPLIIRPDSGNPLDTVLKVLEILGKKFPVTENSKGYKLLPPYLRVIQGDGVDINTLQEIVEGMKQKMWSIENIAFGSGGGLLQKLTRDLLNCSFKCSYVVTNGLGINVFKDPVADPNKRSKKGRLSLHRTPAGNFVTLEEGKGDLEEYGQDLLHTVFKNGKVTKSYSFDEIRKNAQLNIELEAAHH

Row | Structure (SMILES) | IC50 (hNAMPT protein) | inhibition at 1 µM (hNAMPT protein; compound concentration 1 μM) | inhibition at 1 µM (PC3 cells) | inhibition at 1.667 µM (PC3 cells) | inhibition at 1 µM (hNAMPT protein)
1 | CS(=O)(=O)c1cccc(-c2nc3ccc(C(=O)NCCCn4ccnc4)cc3nc2-c2ccccc2)c1 [Compound I-182, N-[3-(1H-imidazol-1-yl)propyl]-2-[3-(methylsulfonyl)phenyl]-3-phenylquinoxaline-6-carboxamide] | 100 to 500 nM | 83% | -7% |  | 
2 | COc1cccc(-c2nc3cc(C(=O)NCCCc4ncc[nH]4)ccc3nc2N2CCCCC2)c1 [Compound I-183, N-[3-(1H-imidazol-2-yl)propyl]-3-(3-methoxyphenyl)-2-(piperidin-1-yl)quinoxaline-6-carboxamide] | < 100 nM | > 99% |  | 2% | 
3 | O=C(NCCc1cnccn1)c1ccc2nc(-c3ccc(F)cc3)c(-c3ccc(F)cc3)nc2c1 [Compound I-184, 2,3-bis(4-fluorophenyl)-N-[2-(pyrazin-2-yl)ethyl]quinoxaline-6-carboxamide] | 1000 to 2000 nM | 39% | 101% |  | 
4 | COc1cccc(-c2nc3ccc(C(=O)NCCCn4ccnc4)cc3nc2-c2ccccc2)c1 [Compound I-187, N-[3-(1H-imidazol-1-yl)propyl]-2-(3-methoxyphenyl)-3-phenylquinoxaline-6-carboxamide] | 100 to 500 nM | 84% | -8% |  | 
5 | CC(C)(C)OC(=O)N1CCC(C2CCN(c3nc4ccc(C(=O)NCCCn5ccnc5)cc4nc3-c3ccccc3)CC2)CC1 [Compound I-188, tert-butyl 1′-(6-{[3-(1H-imidazol-1-yl)propyl]carbamoyl}-3-phenylquinoxalin-2-yl)-4,4′-bipiperidine-1-carboxylate] | 100 to 500 nM | 83% | -7% |  | 
6 | COc1cccc(-c2nc3cc(C(=O)NCCc4cccnc4)ccc3nc2N2CCOCC2)c1 [Compound I-189, 3-(3-methoxyphenyl)-2-(morpholin-4-yl)-N-[2-(pyridin-3-yl)ethyl]quinoxaline-6-carboxamide] | < 100 nM | 91% |  | 2% | 
7 | NC(=O)c1ccc(-c2nc3ccc(C(=O)NCCCn4ccnc4)cc3nc2-c2ccccc2)cc1 [Compound I-190, 2-(4-carbamoylphenyl)-N-[3-(1H-imidazol-1-yl)propyl]-3-phenylquinoxaline-6-carboxamide] | 100 to 500 nM | 74% | -6% |  | 
8 | O=C(NCCCn1ccnc1)c1ccc2nc(-c3ccccc3)c(NCc3ccccc3)nc2c1 [Compound I-191, 3-(benzylamino)-N-[3-(1H-imidazol-1-yl)propyl]-2-phenylquinoxaline-6-carboxamide] | 2000 to 10000 nM | 16% | 24% |  | 
9 | O=C(NCCCc1c[nH]cn1)c1ccc2nc(-c3ccc(F)cc3)c(-c3ccc(F)cc3)nc2c1 [Compound I-192, 2,3-bis(4-fluorophenyl)-N-[3-(1H-imidazol-4-yl)propyl]quinoxaline-6-carboxamide] | 100 to 500 nM | 78% | -7% |  | 
10 | O=C(NCCCc1cncnc1)c1ccc2nc(N3CCOCC3)c(-c3ccc(F)cc3)nc2c1 [Compound I-193, 3-(4-Fluorophenyl)-2-(morpholin-4-yl)-N-[3-(pyrimidin-5-yl)propyl]quinoxaline-6-carboxamide] | 100 to 500 nM |  |  | > 99% | 73%
11 | Cn1cccc1-c1nc2cc(C(=O)NCCCn3ccnc3)ccc2nc1-c1ccccc1 [Compound I-194, N-[3-(1H-imidazol-1-yl)propyl]-3-(1-methyl-1H-pyrrol-2-yl)-2-phenylquinoxaline-6-carboxamide] | 2000 to 10000 nM | 30% | 29% |  | 
12 | O=C(NCCCc1ncc[nH]1)c1ccc2nc(N3CCCCC3)c(-c3cccs3)nc2c1 [Compound I-195, N-[3-(1H-imidazol-2-yl)propyl]-2-(piperidin-1-yl)-3-(2-thienyl)quinoxaline-6-carboxamide] | < 100 nM | > 99% |  | 2% | 
13 | COc1cccc(-c2nc3cc(C(=O)NCCc4cccnc4)ccc3nc2N2CCCCC2)c1 [Compound I-196, 3-(3-methoxyphenyl)-2-(piperidin-1-yl)-N-[2-(pyridin-3-yl)ethyl]quinoxaline-6-carboxamide] | < 100 nM | 98% |  | 2% | 
14 | COc1cccc(-c2nc3cc(C(=O)NCCCc4cccnc4)ccc3nc2N2CCCCC2)c1 [Compound I-197, 3-(3-methoxyphenyl)-2-(piperidin-1-yl)-N-[3-(pyridin-3-yl)propyl]quinoxaline-6-carboxamide] | < 100 nM | > 99% |  | 2% | 
15 | O=C(NCCCc1ncc[nH]1)c1ccc2nc(N3CCCCC3)c(-c3ccc(Cl)cc3)nc2c1 [Compound I-198, 3-(4-chlorophenyl)-N-[3-(1H-imidazol-2-yl)propyl]-2-(piperidin-1-yl)quinoxaline-6-carboxamide] | < 100 nM | > 99% |  | 3% | 
16 | O=C(NCCCn1ccnc1)c1ccc2nc(N3CCC(N4CCOCC4)CC3)c(-c3ccccc3)nc2c1 [Compound I-199, N-[3-(1H-imidazol-1-yl)propyl]-2-[4-(morpholin-4-yl)piperidin-1-yl]-3-phenylquinoxaline-6-carboxamide] | < 100 nM | 101% | 0% |  | 
17 | Cn1cc2c(n1)CN(c1nc3ccc(C(=O)NCCCn4ccnc4)cc3nc1-c1ccccc1)CC2 [Compound I-200, N-[3-(1H-imidazol-1-yl)propyl]-2-(2-methyl-2,4,5,7-tetrahydro-6H-pyrazolo[3,4-c]pyridin-6-yl)-3-phenylquinoxaline-6-carboxamide] | 100 to 500 nM | 85% | -7% |  | 
18 | O=C(NCCCn1ccnc1)c1ccc2nc(-c3cccnc3)c(-c3ccccc3)nc2c1 [Compound I-201, N-[3-(1H-imidazol-1-yl)propyl]-3-phenyl-2-(pyridin-3-yl)quinoxaline-6-carboxamide] | 500 to 1000 nM | 62% | -7% |  | 
19 | O=C(NCCCc1ncc[nH]1)c1ccc2nc(C3=CCC(O)CC3)c(-c3cccs3)nc2c1 (stereo not drawn) [Compound I-202, 2-(4-Hydroxycyclohex-1-en-1-yl)-N-[3-(1H-imidazol-2-yl)propyl]-3-(2-thienyl)quinoxaline-6-carboxamide] | < 100 nM | > 99% |  | 2% | 
20 | Cn1ccc(-c2nc3ccc(C(=O)NCCCn4ccnc4)cc3nc2-c2ccccc2)n1 [Compound I-203, N-[3-(1H-imidazol-1-yl)propyl]-2-(1-methyl-1H-pyrazol-3-yl)-3-phenylquinoxaline-6-carboxamide] | 1000 to 2000 nM | 37% | -8% |  | 
21 | O=C(NCc1cn2cccnc2n1)c1ccc2nc(N3CCC(N4CCOCC4)CC3)c(-c3ccc(F)cc3)nc2c1 [Compound I-204, 3-(4-fluorophenyl)-N-(imidazo[1,2-a]pyrimidin-2-ylmethyl)-2-[4-(morpholin-4-yl)piperidin-1-yl]quinoxaline-6-carboxamide] | < 100 nM | > 99% |  | 63% | 
